Reference: US6458796B1, “Dihydro-[1,2,3]triazolo-[4,5-d]pyrimidin-7-one” (Bayer Aktiengesellschaft, priority 1998, dated 2002)

Experiments:
[1] = target: T1, c-GMP-specific PDE V (Bos taurus, UniProt Q28156); assay: Inhibition of the phosphodiesterases in vitro: PDE V; assay type: biochemical, porcine, human platelets or, preferably, bovine aorta; conditions: 3HcGMP substrate 10^-6 mol/l
T1 construct: porcine aorta, human platelets and, preferably, from bovine aorta; from tissue; host or cells: porcine small intestine, porcine aorta, human platelets or, preferably, bovine aorta
Experimental: (§1) The c-GMP-stimulated PDE II, the c-GMP-inhibited PDE III and the cAMP-specific PDE IV were isolated either from porcine or bovine heart myocardium. The Ca^2+-calmodulin-stimulated PDE I was isolated from porcine aorta, porcine brain or, preferably, from bovine aorta. The c-GMP-specific PDE V was obtained from porcine small intestine, porcine aorta, human platelets and, preferably, from bovine aorta. Purification was carried out by anion exchange chromatography over MonoQ^R Pharmacia, essentially following the method of M. Hoey and Miles D. Houslay, Biochemical Pharmacology, Vol. 40, 193-202 (1990) and C. Lugman et al. Biochemical Pharmacology Vol. 35 1743-1751 (1986).
(§2) The enzyme activity is determined using a test mixture of 100 μl in 20 mM Tris/HCl buffer pH 7.5 containing 5 mM MgCl2, 0.1 mg/ml of bovine serum albumin and either 800 Bq ^3HcAMP or ^3HcGMP. The final concentration of the nucleotides in question is 10^−6 mol/l. The reaction is initiated by addition of the enzyme and the amount of enzyme is such that during the incubation time of 30 min, approximately 50% of the substrate is converted. To test the cGMP-stimulated PDE II, ^3HcAMP is used as substrate and 10^−6 mol/l of non-labelled cGMP are added to the mixture. To test the Ca-calmodulin-dependent PDE I, 1 μM of CaCl2 and 0.1 μM of calmodulin are added to the reaction mixture. The reaction is quenched by addition of 100 μL of acetonitrile, containing 1 mM cAMP and 1 mM AMP. 100 μl of the reaction mixture are separated by HPLC and the cleavage products are determined quantitatively on-line using a continuous scintillation counter. The substance concentration measured is the concentration at which the reaction rate is reduced by 50%. Additionally, the “phodiesterase [^3H] cAMP-SPA enzyme assay” and the “phosphodiesterase [^3H] cGMP-SPA enzyme assay” from Amersham Life Science were used for testing. The test was carried out according to the test protocol of the manufacturer. To determine the activity of PDE2, the [^3H] cAMP-SPA assay was used, and 10^−6 M cGMP were added to the reaction mixture to activate the enzyme. To measure PDE1, 10^−7 M calmodulin and 1 μM CaCl2 were added to the reaction mixture. PDE5 was measured using the [^3H] cGMP-SPA assay.

[2] = target: T2, c-GMP-stimulated PDE II (UniProt P14099); assay: Inhibition of the phosphodiesterases in vitro: PDE II; assay type: biochemical, porcine or bovine (heart myocardium); conditions: 3HcAMP substrate, 10^-6 mol/l cGMP added
T2 sequence (P14099 1-921): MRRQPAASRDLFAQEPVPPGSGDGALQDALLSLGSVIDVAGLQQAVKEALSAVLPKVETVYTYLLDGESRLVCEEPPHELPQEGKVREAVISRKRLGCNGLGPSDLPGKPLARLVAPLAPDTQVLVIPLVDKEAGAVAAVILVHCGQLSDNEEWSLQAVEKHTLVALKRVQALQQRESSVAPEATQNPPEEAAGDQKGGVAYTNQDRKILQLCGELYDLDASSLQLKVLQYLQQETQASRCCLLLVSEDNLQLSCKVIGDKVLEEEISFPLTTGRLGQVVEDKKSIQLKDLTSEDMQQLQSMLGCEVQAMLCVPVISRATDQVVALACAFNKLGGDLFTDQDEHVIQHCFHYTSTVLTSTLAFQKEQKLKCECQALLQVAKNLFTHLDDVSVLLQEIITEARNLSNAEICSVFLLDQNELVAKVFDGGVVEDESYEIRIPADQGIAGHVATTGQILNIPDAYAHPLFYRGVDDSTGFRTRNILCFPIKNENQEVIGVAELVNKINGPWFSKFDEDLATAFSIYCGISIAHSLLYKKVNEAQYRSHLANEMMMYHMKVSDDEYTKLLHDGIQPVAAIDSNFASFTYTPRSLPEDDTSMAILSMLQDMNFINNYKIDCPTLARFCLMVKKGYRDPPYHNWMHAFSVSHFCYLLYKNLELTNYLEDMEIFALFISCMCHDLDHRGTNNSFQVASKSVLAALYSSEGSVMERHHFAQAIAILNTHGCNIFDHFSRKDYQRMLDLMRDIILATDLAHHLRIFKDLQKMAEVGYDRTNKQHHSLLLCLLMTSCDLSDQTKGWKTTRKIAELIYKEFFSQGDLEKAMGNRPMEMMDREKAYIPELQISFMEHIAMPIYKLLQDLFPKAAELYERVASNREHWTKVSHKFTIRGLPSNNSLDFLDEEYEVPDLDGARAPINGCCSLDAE
Experimental: as §1, §2

[3] = system: T3, Ca2+-calmodulin-stimulated PDE I; assay: Inhibition of the phosphodiesterases in vitro: PDE I; assay type: biochemical, porcine or bovine (preferably bovine aorta); conditions: 1 μM CaCl2 and 0.1 μM calmodulin added; substrate 10^-6 mol/l
T3 construct: The Ca^2+-calmodulin-stimulated PDE I was isolated from porcine aorta, porcine brain or, preferably, from bovine aorta
Experimental: as §1, §2

| melting point [°C] | IC50 [1] [nM] | IC50 [2] [nM] | IC50 [3] [nM] | Compound |
| --- | --- | --- | --- | --- |
| 112 |  |  |  | CC(CCCc1ccccc1)n1nnc2c(=O)[nH]c(Cc3ccccc3)nc21 (stereo not shown) [Example 4, 5-Benzyl-3-(1-methyl-4-phenyl-butyl)-3,6-dihydro-[1,2,3]triazolo[4,5-d]pyrimidin-7-one] |
|  | 500 | 80 | 500 | COc1ccc(Cc2nc3c(nnn3C(C)CCCc3ccccc3)c(=O)[nH]2)cc1OC (stereo not shown) [Example 5, 5-(3,4-Dimethoxy-benzyl)-3-(1-methyl-4-phenyl-butyl)-3,6-dihydro-[1,2,3]triazolo-[4,5-d]pyrimidin-7-one] |
|  | > 1000 | 200 | 200 | CNS(=O)(=O)c1ccc(Cc2nc3c(nnn3C(C)CCCc3ccccc3)c(=O)[nH]2)cc1 (stereo not shown) [Example 19, N-Methyl-4-[3-(1-methyl-4-phenyl-butyl)-7-oxo-6,7-dihydro-3H-[1,2,3]-triazolo-[4,5-d]pyrimidin-5-ylmethyl]-benzenesulphonamide] |
|  | > 1000 | 100 | 100 | CC(CCCc1ccccc1)n1nnc2c(=O)[nH]c(Cc3ccc(S(=O)(=O)NCCO)cc3)nc21 (stereo not shown) [Example 23, N-(2-Hydroxyethyl)-4-[3-(1-methyl-4-phenyl-butyl)-7-oxo-6,7-dihydro-3H-[1,2,3]triazolo[4,5-d]pyrimidin-5-ylmethyl]benzenesulphonamide] |
|  | ≥ 1000 | 300 | 500 | CC(O)C(CCCc1ccccc1)n1nnc2c(=O)[nH]c(Cc3ccc4c(c3)OCO4)nc21 (stereo not shown) [Example 30, 5-Benzo[1,3]dioxol-5-ylmethyl-3-[1-(1-hydroxy-ethyl)-4-phenyl-butyl]-3,6-dihydro-[1,2,3]triazolo[4,5-d]pyrimidin-7-one] |
|  | > 1000 | 40 | > 1000 | COc1ccc(Cc2nc3c(nnn3C(CCCc3ccccc3)C(C)O)c(=O)[nH]2)cc1OC (stereo not shown) [Example 31, 5-(3,4-Dimethoxy-benzyl)-3-[1-(1-hydroxy-ethyl)-4-phenyl-butyl]-3,6-dihydro-[1,2,3]triazolo[4,5-d]pyrimidin-7-one] |
